How the values were obtained:
Test in all cases: relative viability (nuclei count vs DMSO), 5 days (fraction); higher = more cells survive
[1] = compound: CC(=O)c1c(C)c2cnc(Nc3ccc(N4CCNCC4)cn3)nc2n(C2CCCC2)c1=O [Palbociclib] + O=C(CCCCCCC(=O)Nc1ccccc1)NO [Vorinostat] (partner 1 µM)
Outline: (§1)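 A single step with final 0.05% Triton X-100, 1% formaldehyde and 1 ug/ml Hoechst fixed the cells and stained nuclei 5 days after treatment. Lung cancer cell lines in 1536-well plates had been treated by pin tool the day after seeding with one drug alone or a fixed anchor-drug dose plus five library-drug doses (not always all listed) in √10 steps, and nuclei were counted on 4× images. Relative viability is the ratio of nuclei in treated wells to nuclei in vehicle wells, taken as the median of duplicate plates.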

[2] = compound: CC(=O)c1c(C)c2cnc(Nc3ccc(N4CCNCC4)cn3)nc2n(C2CCCC2)c1=O [Palbociclib] + NC(=O)Nc1cc(-c2cccc(F)c2)sc1C(=O)N[C@H]1CCCNC1 [AZD7762] (partner 0.2 µM)
Outline: as §1

[3] = compound: CC(=O)c1c(C)c2cnc(Nc3ccc(N4CCNCC4)cn3)nc2n(C2CCCC2)c1=O [Palbociclib] + N=C(N)NC(=N)NCCc1ccccc1 [Phenformin] (partner 250 µM)
Outline: as §1

[4] = compound: CC(=O)c1c(C)c2cnc(Nc3ccc(N4CCNCC4)cn3)nc2n(C2CCCC2)c1=O [Palbociclib] + CS(=O)(=O)CCNCc1ccc(-c2ccc3ncnc(Nc4ccc(OCc5cccc(F)c5)c(Cl)c4)c3c2)o1 [Lapatinib] (partner 2 µM)
Outline: as §1

Cell Line	relative viability ([1]; first compound 0.01 µM)	relative viability ([1]; first compound 0.03162 µM)	relative viability ([1]; first compound 0.1 µM)	relative viability ([1]; first compound 0.3162 µM)	relative viability ([1]; first compound 1 µM)	relative viability ([2]; first compound 0.01 µM)	relative viability ([2]; first compound 0.03162 µM)	relative viability ([2]; first compound 0.1 µM)	relative viability ([2]; first compound 0.3162 µM)	relative viability ([2]; first compound 1 µM)	relative viability ([3]; first compound 0.01 µM)	relative viability ([3]; first compound 0.03162 µM)	relative viability ([3]; first compound 0.1 µM)	relative viability ([3]; first compound 0.3162 µM)	relative viability ([3]; first compound 1 µM)	relative viability ([4]; first compound 0.01 µM)	relative viability ([4]; first compound 0.03162 µM)	relative viability ([4]; first compound 0.1 µM)	relative viability ([4]; first compound 0.3162 µM)	relative viability ([4]; first compound 1 µM)
201T	1.02	0.567	0.837	0.752	0.532	0.573	0.475	0.905	0.751	0.633	0.469	0.359	0.359	0.381	0.311	1.06	0.844	0.928	0.94	0.692
A549											0.205	0.0665	0.11	0.129	0.096	0.868	0.784	0.615	0.474	0.364
A-427	0.855	0.789	0.711	0.652	0.527	0.778	0.653	0.472	0.469	0.43	0.392	0.2	0.282	0.269	0.212	0.965	0.735	1.03	0.895	0.648
ABC-1	1.18	1.03	0.552	1.03	0.453	0.931	0.614	0.727	0.957	0.752	0.227	0.202	0.232	0.233	0.24	1.01	1.3	1.26	1.07	1.25
BEN	0.568	0.542	0.509	0.58	0.517	0.826	0.604	0.583	0.567	0.388	0.285	0.243	0.237	0.249	0.257	0.754	0.582	0.518	0.558	0.342
CAL-12T	0.781	0.747	0.595	0.581	0.505	0.646	0.569	0.516	0.51	0.409	0.603	0.475	0.429	0.421	0.324	0.759			0.367	0.334
COR-L23	0.461	0.346	0.328	0.244	0.223						0.438	0.37	0.304	0.345	0.263	1.02	0.864	0.777	0.667	0.418
COR-L 105	0.9	0.887	0.612	0.611	0.482						0.467	0.54	0.381	0.385	0.33	0.352	0.281	0.312	0.339	0.354
Calu-6																1.07	0.897	0.855	0.709	0.53
ChaGo-K-1	0.726		0.696	0.721	0.746	0.885		0.867	0.905	0.861	0.484	0.376	0.503	0.458	0.524					
EKVX	0.702	0.509	0.625	0.549	0.483	0.7		0.673	0.558	0.38	0.23	0.192	0.238	0.245	0.145	0.184	0.193	0.193	0.178	0.12
EMC-BAC-2	0.461	0.39	0.379	0.376	0.308	1.13	0.935	0.955	1.02	0.713	0.537	0.394	0.401	0.374	0.342	0.908	0.515	0.793	0.689	0.597
EPLC-272H	0.535	0.647	0.46	0.401	0.245	0.306		0.383	0.251	0.274	0.316		0.265	0.291	0.198	1.14		0.71	0.603	0.718
H3255	0.907	0.688	0.687	0.68	0.549	1.07	0.8	0.831	0.798	0.506	0.38	0.361	0.319	0.368	0.287	0.263	0.246	0.2	0.231	0.211
HARA	0.446		0.384	0.608	0.511	0.379	0.137	0.244	0.364	0.242	0.509		0.309	0.258	0.203	0.715	0.473	0.397	0.363	0.225
HCC-15	0.871		0.768	0.684	0.581	1.27		1.03	1.13	0.866	0.463		0.405	0.421	0.323	0.934		0.75	0.796	0.642
HCC-44	1.09	1.08	1.15	1.03	1.13	1.03	0.98	0.97	0.96	1.01	0.234		0.171	0.223	0.204	0.886	0.939	0.978	0.979	1.02
HCC-78	0.502	0.38	0.415	0.418	0.299	0.731	0.623	0.67	0.525	0.685	0.727	0.624	0.554	0.44	0.318	0.914	0.313	0.513	0.685	0.198
HCC-366	0.388		0.289	0.213	0.135	0.198		0.43	0.232	0.11	0.626		0.645	0.427	0.396	1.06		0.953	0.91	0.608
HCC-827	0.863	0.65	0.787	0.636	0.598	0.245	0.211	0.202	0.203	0.168	0.41	0.285	0.319	0.384	0.289	0.217	0.19	0.161	0.202	0.182
HOP-62	0.499		0.423	0.482	0.395	0.334		0.389	0.501	0.355	0.642		0.644	0.502	0.47	0.77		0.871	0.825	0.79

Cell Line	relative viability ([1]; first compound 0.01 µM)	relative viability ([1]; first compound 0.03162 µM)	relative viability ([1]; first compound 0.1 µM)	relative viability ([1]; first compound 0.3162 µM)	relative viability ([1]; first compound 1 µM)	relative viability ([2]; first compound 0.01 µM)	relative viability ([2]; first compound 0.03162 µM)	relative viability ([2]; first compound 0.1 µM)	relative viability ([2]; first compound 0.3162 µM)	relative viability ([2]; first compound 1 µM)	relative viability ([3]; first compound 0.01 µM)	relative viability ([3]; first compound 0.03162 µM)	relative viability ([3]; first compound 0.1 µM)	relative viability ([3]; first compound 0.3162 µM)	relative viability ([3]; first compound 1 µM)	relative viability ([4]; first compound 0.01 µM)	relative viability ([4]; first compound 0.03162 µM)	relative viability ([4]; first compound 0.1 µM)	relative viability ([4]; first compound 0.3162 µM)	relative viability ([4]; first compound 1 µM)
IA-LM	0.955		0.661	0.724	0.312											0.701	0.41	0.392	0.264	0.143
LC-2-ad	0.712	0.351	0.561	0.561	0.475	0.886	0.692	0.734	0.702	0.513	0.573		0.523	0.414	0.383	0.947		0.736	0.705	0.491
LCLC-103H	0.743	0.512	0.62	0.668	0.445	0.731	0.55	0.716	0.708	0.539	0.33	0.28	0.318	0.248	0.223					
NCI-H441	0.817	0.708	0.589	0.569	0.405	1.04	0.844	0.896	0.743	0.598	0.896	0.627	0.623	0.57	0.35					
NCI-H520	0.728	0.57	0.565	0.47	0.372						0.5	0.321	0.348	0.407	0.227	0.92	0.556	0.695	0.572	0.243
NCI-H661	0.748	0.598	0.561	0.433	0.425						0.264	0.29	0.258	0.279	0.282	0.491	0.437	0.477	0.345	0.333
NCI-H1299																0.952	0.877	0.86	0.809	0.642
NCI-H1563											0.709	0.636	0.639	0.654	0.537	0.952	0.852	0.955	0.844	0.759
NCI-H1648	0.869	0.426	0.386	0.388	0.398	0.841	0.436	0.598	0.657	0.56										
NCI-H1650	0.607	0.558	0.523	0.39	0.31						0.45	0.251	0.289	0.348	0.233	0.774	0.258	0.263	0.578	0.351
NCI-H1703						0.12		0.109	0.0999	0.14						0.99		0.833	0.602	0.451
NCI-H1792						0.663	0.559	0.462	0.576	0.185	0.389	0.237	0.209	0.193	0.1	0.872	0.728	0.882	0.752	0.543
NCI-H2009	0.716	0.677	0.69	0.53	0.295						0.457	0.396	0.357	0.291	0.23	0.859	0.391	0.697	0.63	0.369
NCI-H2023	0.721	0.281	0.54	0.515	0.303						0.405	0.381	0.321	0.319	0.218	0.728	0.165	0.545	0.55	0.353
NCI-H2228	0.566	0.673	0.649	0.717	0.398						0.322	0.287	0.293	0.258	0.307	1.26	0.909	0.923	0.95	0.959
NCI-H2342	0.713	0.63	0.895	0.638	0.585	0.457	0.467	0.414	0.409	0.399	0.569	0.555	0.477	0.564	0.441					
SK-LU-1	0.805	0.748	0.617	0.529	0.436						0.546	0.418	0.309	0.314	0.254	1.02	0.856	0.624	0.619	0.529
SK-MES-1	1.08	0.902	0.735	0.763	0.395						0.661	0.573	0.455	0.376	0.18	0.439	0.449	0.391	0.406	0.344
SW 900	0.524		0.385	0.415	0.389	0.67		0.641	0.644	0.46	0.632		0.435	0.448	0.298					
SW 1573	0.752	0.251	0.51	0.673	0.546						0.364	0.324	0.234	0.216	0.219	1.01	1.09	1.04	0.901	0.781
UMC-11	0.308	0.42	0.369	0.312	0.242						0.303	0.278	0.292	0.292	0.24	1.03	0.75	0.593	0.432	0.34

— the supplement of paper PMC10307832
